# In ChEMBL document CHEMBL2375327, “Carbonic anhydrase inhibitors: inhibition of the β-class enzyme from the pathogenic yeast Candida glabrata with sulfonamides, sulfamates and sulfamides” (Bioorg Med Chem Lett, 2013):
# pKi: −log10 of the molar value.
# Key:
# Carbonic anhydrase [1] = target: T1, Carbonic anhydrase (Candida glabrata CBS 138, UniProt Q6FTL6); set-up: species or system Nakaseomyces glabratus
# T1 sequence (Q6FTL6 whole entry): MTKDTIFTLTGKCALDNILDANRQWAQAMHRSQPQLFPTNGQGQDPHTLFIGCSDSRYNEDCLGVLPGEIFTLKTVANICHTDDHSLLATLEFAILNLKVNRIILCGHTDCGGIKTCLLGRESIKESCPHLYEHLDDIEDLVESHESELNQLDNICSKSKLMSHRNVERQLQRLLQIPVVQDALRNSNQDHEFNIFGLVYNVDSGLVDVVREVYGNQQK
# Carbonic anhydrase [2] = target: T2, Carbonic anhydrase (Candida albicans (strain SC5314 / ATCC MYA-2876) (Yeast), UniProt Q5AJ71)
# T2 sequence (Q5AJ71 whole entry): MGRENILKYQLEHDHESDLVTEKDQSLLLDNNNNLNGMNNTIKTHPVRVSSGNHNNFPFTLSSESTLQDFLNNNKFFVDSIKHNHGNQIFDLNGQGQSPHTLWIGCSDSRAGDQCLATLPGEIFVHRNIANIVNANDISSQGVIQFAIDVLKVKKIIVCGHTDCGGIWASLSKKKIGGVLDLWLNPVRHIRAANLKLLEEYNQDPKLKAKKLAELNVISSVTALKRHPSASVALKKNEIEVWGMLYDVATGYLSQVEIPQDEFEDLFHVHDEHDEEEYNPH
# [3] = Selectivity ratio of Ki for human carbonic anhydrase-2 to Ki for recombinant full length Candida glabrata NCE103
# Carbonic anhydrase 2 = Carbonic anhydrase 2 (Homo sapiens, UniProt P00918); experiment: Inhibition of human carbonic anhydrase-2 preincubated for 15 mins by stopped-flow CO2 hydrase assay
pKi (Carbonic anhydrase [1]; read-out: Ki),Structure (SMILES),pKi (Carbonic anhydrase [2]),other results
6.38,NS(=O)(=O)c1nnc(-c2ccccc2Cl)s1,–,–
7.28,NS(=O)(=O)c1ccc(C(=O)O)cc1 [CARZENIDE],–,–
6.06,NCc1ccc(S(N)(=O)=O)cc1 [MAFENIDE],–,–
7.03,NS(=O)(=O)c1ccc(S(=O)(=O)Nc2cccc3c(Cl)c[nH]c23)cc1,–,–
7.01,Nc1cc(C(F)(F)F)c(S(N)(=O)=O)cc1S(N)(=O)=O,–,–
7.14,NS(=O)(=O)c1ccc(NC(=O)Nc2ccccc2)cc1,–,–
7.09,NS(=O)(=O)c1ccc(NC(=O)NCc2ccccc2)cc1,–,–
7.01,Nc1ccc(S(N)(=O)=O)cc1Cl,–,–
6.07,Cc1ccc(S(N)(=O)=O)cc1 [P-TOLUENESULFONAMIDE],–,–
6.97,Nc1ccc(S(=O)(=O)NCc2ccc(S(N)(=O)=O)cc2)cc1,–,–
6.10,Cn1nc(S(N)(=O)=O)sc1=N,–,–
7.21,NS(=O)(=O)c1ccc(CO)cc1,–,–
8.02,NS(=O)(=O)Oc1ccc(NC(=O)Nc2ccccc2)cc1,–,–
6.96,CC1(C)O[C@@H]2[C@@H](CO[C@@]3(COS(N)(=O)=O)OC(C)(C)O[C@@H]23)O1 [TOPIRAMATE],–,–
7.02,Nc1nnc(S(N)(=O)=O)s1,–,–
6.02,NS(=O)(=O)c1nnc(NS(=O)(=O)c2ccccc2)s1 [BENZOLAMIDE],–,–
6.94,Cc1ccc(-c2cc(C(F)(F)F)nn2-c2ccc(S(N)(=O)=O)cc2)cc1 [CELECOXIB],–,–
8.21,NS(=O)(=O)c1ccc(NC(=O)Nc2cccc([N+](=O)[O-])c2)cc1,–,–
7.07,Nc1cc(Cl)c(S(N)(=O)=O)cc1S(N)(=O)=O,–,–
7.01,Nc1ccc(S(N)(=O)=O)cc1F,–,–
7.32,NS(=O)(=O)c1ccc(CCO)cc1,–,–
5.51,CCOc1ccc2nc(S(N)(=O)=O)sc2c1 [ETHOXZOLAMIDE],–,–
5.36,CCN[C@H]1CN(CCCOC)S(=O)(=O)c2sc(S(N)(=O)=O)cc21 [BRINZOLAMIDE],–,–

# Continued, compound first:
Structure (SMILES),pKi (Carbonic anhydrase [1]; read-out: Ki),pKi (Carbonic anhydrase [2]),other results
NS(=O)(=O)Oc1ccc(NC(=O)Nc2ccc([N+](=O)[O-])cc2)cc1,8.19,6.97,–
NS(=O)(=O)Oc1ccc(NC(=O)Nc2ccc(C(F)(F)F)c(C(F)(F)F)c2C(F)(F)F)cc1,8.24,7.12,–
NS(=O)(=O)Oc1ccc(NC(=O)Nc2cccc3ccccc23)cc1,7.05,5.84,–
N#Cc1ccccc1NC(=O)Nc1ccc(OS(N)(=O)=O)cc1,7.05,6.81,–
NS(=O)(=O)Nc1ccc(NC(=O)NCCc2ccccc2)cc1,7.82,6.89,–
NS(=O)(=O)c1ccc(NC(=O)Nc2ccc(Cl)cc2)cc1,8.15,–,–
Nc1ccc(S(=O)(=O)NCCc2ccc(S(N)(=O)=O)cc2)cc1,7.01,–,–
NS(=O)(=O)Oc1ccc(NC(=O)Nc2c(F)cc(F)cc2Br)cc1,8.30,7.08,–
Nc1ccc(S(N)(=O)=O)cc1Br,6.96,–,–
NS(=O)(=O)Oc1ccc(NC(=O)Nc2ccc3c(c2)Cc2ccccc2-3)cc1,6.94,7.12,–
NS(=O)(=O)Nc1ccc(NC(=O)Nc2ccccc2-c2ccccc2)cc1,8.17,7.14,–
NS(=O)(=O)Nc1ccc(NC(=O)Nc2ccc(Cl)cc2)cc1,8.26,6.99,Ratio Ki [3]: 57
Cc1onc(-c2ccccc2)c1-c1ccc(S(N)(=O)=O)cc1 [VALDECOXIB],7.01,–,–
Nc1ccc(S(N)(=O)=O)cc1I,–,–,pKi (Carbonic anhydrase [1]): 6.89
NS(=O)(=O)Nc1ccc(NC(=O)Nc2cccc([N+](=O)[O-])c2)cc1,8.39,6.96,–
NS(=O)(=O)Nc1ccc(NC(=O)NCc2ccco2)cc1,7.62,7.24,–

Structure (SMILES),pKi (Carbonic anhydrase [1]; read-out: Ki),pKi (Carbonic anhydrase [2]),other results
NS(=O)(=O)Nc1ccc(NC(=O)NC2CCCCC2)cc1,7.10,6.87,–
NS(=O)(=O)Oc1ccc(NC(=O)Nc2cccc(Cl)c2)cc1,7.05,6.91,–
NCCc1ccc(S(N)(=O)=O)cc1,6.26,–,–
NS(=O)(=O)Oc1ccc(NC(=O)Nc2ccc(Cl)cc2)cc1,8.03,6.30,–
NS(=O)(=O)c1ccc(NC(=O)Nc2ccc(Br)cc2)cc1,8.27,–,–
Nc1nccc(Nc2ccc(S(N)(=O)=O)cc2)n1,7.08,–,–
NS(=O)(=O)Nc1ccc(NC(=O)NCc2ccccc2)cc1,7.61,6.84,–
Cc1cc(C)cc(NC(=O)Nc2ccc(NS(N)(=O)=O)cc2)c1,8.07,6.86,–
NS(=O)(=O)Oc1ccc(NC(=O)NCc2ccccc2)cc1,8.08,6.86,pKi (Carbonic anhydrase 2): 6.56
NS(=O)(=O)c1ccc(NC(=O)NCCc2ccccc2)cc1,7.25,6.91,pKi (Carbonic anhydrase 2): 6.18
NS(=O)(=O)Oc1ccc(NC(=O)NCCc2ccccc2)cc1,8.12,6.88,–
Nc1ccc(S(N)(=O)=O)cc1 [SULFANILAMIDE],5.10,–,–
CCCCOc1ccc(NC(=O)Nc2ccc(NS(N)(=O)=O)cc2)cc1,7.86,6.87,–
CC(C)c1ccccc1NC(=O)Nc1ccc(NS(N)(=O)=O)cc1,7.47,7.26,–
Nc1ccc(S(=O)(=O)Nc2nnc(S(N)(=O)=O)s2)cc1,6.97,–,–
